According to US4075340A, “Thieno [2,3-C] pyridine derivatives and therapeutic composition containing same” (Parcor, priority 1975, dated 1978):
Where a name gives a salt, the structure may show the parent alone. Read-outs that look alike come from different tables or passages of the source.

Tests used:
[1] = test system: carrageenin-induced edema in rats; assay: Localized Carrageenin-induced Edema Method; type: in vivo; details: Rattus norvegicus, oral 100 mg/kg, repeated (1 hour before, with, 1 and 2.5 hours after carrageenin)
Method: a) Localized Carrageenin-induced Edema Method
0.1 ml of a 1% carrageenin solution is injected at time 0 in the metatarsal flexor muscles of the right hind limb of rats. The animals of the treated group are administered orally, additionally, 100 mg/kg of the test derivative, respectively one hour prior to and then simultaneously with the phlogogenic agent, and then one hour and 2.5 hours thereafter. The determinations effected with a ROCH micrometer at times 0, 1 hour, 2 hrs, 3 hrs and 5hrs after carrageenin administration, make it possible to determine the percent anti-inflammatory activity, as a function of time.

[2] = test system: ovalbumin-induced systemic edema in rats; assay: Ovalbumin-induced Systemic Edema Method; type: in vivo; details: Rattus norvegicus, oral 100 mg/kg, 1 hour before and with ovalbumin
Method: b) Ovalbumin-induced Systemic Edema Method
Rats are administered a simultaneous intraperitoneal injection of 1 ml ovalbumin and 0.5 ml of a 1% aqueous Evans Blue solution. The animals of the treated group are additionally administered orally 100 mg/kg of the test derivative, one hour prior to ovalbumin administration and then simultaneously with said ovalbumin administration. The intensity of the phenomenon thus induced is rated according to a scale from 1 to 5, according to the progress of the inflammatory syndrome. The measurements are effected after 2 hours and after 3 hours. Thus are determined the mean intensity of the edema and the percent decrease of the edema reaction.

[3] = test system: blood platelet aggregation; assay: Inhibiting activity on blood platelet aggregation (adenosine diphosphate induced, turbidimetric assay); type: in vivo; details: rat plasma, animals administered 100 mg/kg, read-out: percent inhibition on blood platelet aggregation
Method: Rat plasma, prepared to contain 600,000+20,000 blood platelets per mm3 is normally cloudy. Addition of adenosine diphosphate induces blood platelet aggregation and, thus an increase of the light transmission. When the same test is effected with a plasma prepared from the blood of an animal which has been administered 100 mg/kg of a derivative having an inhibiting effect on blood platelet aggregation, there is no aggregation of the blood platelets and the serum remains cloudy. The turbidimetric assay effected with a spectrophotometer provides a measure of the inhibiting activities of the test derivatives on blood platelet aggregation.

[4] = acute toxicity, LD50 /24 hrs/kg body weight, intravenous route, method according to Miller and Tainter; details: in vivo
[5] = after 1 hour, read-out: Percent anti-inflammatory activity after 1 hour
[6] = after 2 hours, read-out: Percent anti-inflammatory activity after 2 hours
[7] = after 5 hours, read-out: Percent anti-inflammatory activity after 5 hours
[8] = after 2 hours, read-out: Percent decrease (of the edema reaction) after 2 hours
[9] = after 3 hours, read-out: Percent decrease (of the edema reaction) after 3 hours

With `CCCCCCCCCCCCN1CCc2ccsc2C1` [Derivative No. 1, 6-n-dodecyl-4,5,6,7-tetrahydro-thieno[2,3-c]pyridine] the inhibition in vivo at 100 mg/kg [1, 5] was 38%, the inhibition in vivo at 100 mg/kg [1, 6] was 46% and the inhibition in vivo at 100 mg/kg [1, 7] was 54%. The inhibition in vivo at 100 mg/kg [2, 8] was 36% and the inhibition in vivo at 100 mg/kg [2, 9] was 51%.

`COc1cc(CN2CCc3ccsc3C2C)cc(OC)c1OC` (stereo not shown) [Derivative No. 3, 7-methyl-6-(3,4,5-trimethoxy-benzyl)-4,5,6,7-tetrahydro-thieno[2,3-c]pyridine] showed an inhibition at 100 mg/kg [3] of 91%.

Compound `O=C(O)c1ccccc1CN1CCc2ccsc2C1` [Derivative No. 5, 6-o-carboxybenzyl-4,5,6,7-tetrahydro-thieno[2,3-c]pyridine] has an inhibition in vivo at 100 mg/kg [1, 5] of 44%, an inhibition in vivo at 100 mg/kg [1, 6] of 52% and an inhibition in vivo at 100 mg/kg [1, 7] of 60%. For the same compound, the inhibition in vivo at 100 mg/kg [2, 8] was 42% and the inhibition in vivo at 100 mg/kg [2, 9] was 61%.

`Clc1ccc(CN2CCc3ccsc3C2)s1` [Derivative No. 6, 6-[2-(5-chloro-thienyl)-methyl]-4,5,6,7-tetrahydro-thieno[2,3-c]pyridine] showed an LD50 at 24 h [4] of 135 mg/kg.

In the case of `CC1c2sccc2CCN1CC(O)c1ccccc1` (stereo not shown) [Derivative No. 7, 6-(2-hydroxy-2-phenyl-ethyl)-7-methyl-4,5,6,7-tetrahydro-thieno[2,3-c]pyridine], the inhibition at 100 mg/kg [3] is reported as 85%.

For `CC(=O)OC(CN1CCc2ccsc2C1)c1ccc(Cl)cc1` (stereo not shown) [Derivative No. 8, 6-(2-acetoxy-2-p-chlorophenyl-ethyl)-4,5,6,7-tetrahydro-thieno[2,3-c]pyridine], the inhibition in vivo at 100 mg/kg [1, 5] was 40%, the inhibition in vivo at 100 mg/kg [1, 6] was 49% and the inhibition in vivo at 100 mg/kg [1, 7] was 59%. For the same compound, the inhibition in vivo at 100 mg/kg [2, 8] was 45% and the inhibition in vivo at 100 mg/kg [2, 9] was 58%.

Work on `CC(O)CN1CCc2ccsc2C1.Cl` (stereo not shown) [Derivative No. 9, 6-(2-hydroxy-propyl)-4,5,6,7-tetrahydro-thieno[2,3-c]pyridine, hydrochloride] yielded an inhibition at 100 mg/kg [3] of 89% and an LD50 at 24 h [4] of 120 mg/kg.

`COc1cccc(C(CN2CCc3ccsc3C2)OC(C)=O)c1` (stereo not shown) [Derivative No. 10, 6-(2-acetoxy-2m.methoxyphenyl-ethyl)-4,5,6,7-tetrahydro-thieno[2,3-c]pyridine] gave an LD50 at 24 h [4] of 80 mg/kg.

`Cl.O=[N+]([O-])c1ccccc1CN1CCc2ccsc2C1` [Derivative No. 11, 6-o-nitrobenzyl-4,5,6,7-tetrahydro-thieno[2,3-c]pyridine, hydrochloride] gave an LD50 at 24 h [4] of 160 mg/kg.

For `O=[N+]([O-])c1ccc(CN2CCc3ccsc3C2)cc1` [Derivative No. 12, 6-p-nitrobenzyl-4,5,6,7-tetrahydro-thieno[2,3-c]pyridine], the inhibition at 100 mg/kg [3] was 75%.

`COc1cc(CN2CCc3ccsc3C2)cc(OC)c1OC.O=C(O)/C=C\C(=O)O` [Derivative No. 17, 6-(3,4,5-trimethoxy-benzyl)-4,5,6,7-tetrahydro-thieno[2,3-c]pyridine, maleate] gave an LD50 at 24 h [4] of 80 mg/kg.

In the case of `COc1ccc(CN2CCc3ccsc3C2)cc1` [Derivative No. 18, 6-p.methoxybenzyl-4,5,6,7-tetrahydro-thieno[2,3-c]pyridine, hydrochloride], the inhibition at 100 mg/kg [3] is reported as 78% and the LD50 at 24 h [4] is reported as 60 mg/kg.

With `c1ccc(CCN2CCc3ccsc3C2)cc1` [Derivative No. 19, 6-β-phenethyl-4,5,6,7-tetrahydro-thieno[2,3-c]pyridine, hydrochloride] the LD50 at 24 h [4] was 48 mg/kg.

`COc1cccc(CN2CCc3ccsc3C2)c1` [Derivative No. 20, 6-m.methoxybenzyl-4,5,6,7-tetrahydro-thieno-[2,3-c]pyridine, hydrochloride] showed an LD50 at 24 h [4] of 63 mg/kg.

`Clc1ccc(CN2CCc3ccsc3C2)cc1` [Derivative No. 21, 6-p.chlorobenzyl-4,5,6,7-tetrahydro-thieno[2,3-c]pyridine, hydrochloride] showed an inhibition at 100 mg/kg [3] of 91% and an LD50 at 24 h [4] of 55 mg/kg.

With `Cl.OC(CN1CCc2ccsc2C1)c1ccccc1` (stereo not shown) [Derivative No. 23, 6-(2-hydroxy-2-phenyl-ethyl)-4,5,6,7-tetrahydro-thieno[2,3-c]pyridine, hydrochloride] the LD50 at 24 h [4] was 67 mg/kg.

With `Cc1ccc(CN2CCc3ccsc3C2)cc1` [Derivative No. 24, 6-p.methylbenzyl-4,5,6,7-tetrahydro-thieno[2,3-c]pyridine, hydrochloride] the inhibition at 100 mg/kg [3] was 78% and the LD50 at 24 h [4] was 45 mg/kg.

Work on `COc1ccc(CN2CCc3ccsc3C2)cc1OC.Cl` [Derivative No. 25, 6-(3,4-dimethoxy-benzyl)-4,5,6,7-tetrahydro-thieno[2,3-c]pyridine, hydrochloride] yielded an LD50 at 24 h [4] of 90 mg/kg.

Work on `Fc1ccccc1CN1CCc2ccsc2C1` [Derivative No. 26, 6-o.fluorobenzyl-4,5,6,7-tetrahydro-thieno[2,3-c]pyridine, fumarate] yielded an LD50 at 24 h [4] of 87 mg/kg.

For `OC(CN1CCc2ccsc2C1)c1ccc(Cl)cc1` (stereo not shown) [Derivative No. 27, 6-(2-hydroxy-2-p.chlorophenyl-ethyl)-4,5,6,7-tetrahydro-thieno[2,3-c]pyridine], the inhibition at 100 mg/kg [3] was 86% and the LD50 at 24 h [4] was 45 mg/kg.

Work on `OC(CN1CCc2ccsc2C1)c1ccc(F)cc1` (stereo not shown) [Derivative No. 29, 6-(2-hydroxy-2-p.fluorophenyl-ethyl)-4,5,6,7-tetrahydro-thieno[2,3-c]pyridine] yielded an inhibition at 100 mg/kg [3] of 89% and an LD50 at 24 h [4] of 60 mg/kg.

`CC1c2sccc2CCN1CCc1ccccc1` (stereo not drawn) [Derivative No. 31, 7-methyl-6-β-phenethyl-4,5,6,7-tetrahydro-thieno[2,3-c]pyridine, maleate] showed an LD50 at 24 h [4] of 53 mg/kg.

For `COc1cccc(C(O)CN2CCc3ccsc3C2C)c1` (stereo not shown) [Derivative No. 33, 6-(2-hydroxy-2-m.methoxyphenyl-ethyl)-7-methyl-4,5,6,7,-tetrahydro-thieno[2,3-c]pyridine], the inhibition at 100 mg/kg [3] was 74%.

In the case of `COc1ccc(OC)c(C(O)CN2CCc3ccsc3C2C)c1` (stereo not shown) [Derivative No. 34, 6-[2-(2,5-dimethoxy-phenyl)-2-hydroxy-ethyl]-7-methyl-4,5,6,7-tetrahydro-thieno[2,3-c]pyridine], the LD50 at 24 h [4] is reported as 84 mg/kg.

For `COc1ccc(OCC(O)CN2CCc3ccsc3C2)cc1` (stereo not shown) [Derivative No. 35, 6-(2-hydroxy-3-p.methoxyphenoxy-propyl)-4,5,6,7-tetrahydro-thieno[2,3-c]pyridine, hydrochloride], the LD50 at 24 h [4] was 19 mg/kg.

In the case of `CC(=O)CCN1CCc2ccsc2C1.O=C(O)/C=C\C(=O)O` [Derivative No. 36, 6-(3-oxo-butyl)-4,5,6,7-tetrahydro-thieno[2,3-c]-pyridine, maleate], the LD50 at 24 h [4] is reported as 16 mg/kg.

`OC(CN1CCc2ccsc2C1)C(Cl)(Cl)Cl` (stereo not shown) [Derivative No. 37, 6-(2-hydroxy-3,3,3-trichloro-propyl)-4,5,6,7-tetrahydro-thieno[2,3-c]pyridine] gave an LD50 at 24 h [4] of 18 mg/kg.

`COc1ccc(CN2CCc3ccsc3C2)cc1OC` [Derivative No. 38, 6-(3,4-dimethoxy-benzyl)-4,5,6,7-tetrahydro-thieno[2,3-c]pyridine] gave an LD50 at 24 h [4] of 22 mg/kg.

`Cc1c2sccc2cc[n+]1CC(=O)c1ccccc1.[Br-]` [Derivative No. 39, 7-methyl-6-phenacyl-thieno[2,3-c]pyridinium bromide] gave an LD50 at 24 h [4] of 35 mg/kg.

For `COc1ccc(C(=O)C[n+]2ccc3ccsc3c2C)cc1.[Br-]` [Derivative No. 44, 7-methyl-6-p-methoxyphenacyl-thieno[2,3-c]pyridinium bromide], the LD50 at 24 h [4] was 51 mg/kg.

With `COc1cccc(C(CN2CCc3ccsc3C2)OC(C)=O)c1` (stereo not shown) [compound 10] the inhibition in vivo at 100 mg/kg [1, 5] was 43%, the inhibition in vivo at 100 mg/kg [1, 6] was 50% and the inhibition in vivo at 100 mg/kg [1, 7] was 56%. It also gave an inhibition in vivo at 100 mg/kg [2, 8] of 48% and an inhibition in vivo at 100 mg/kg [2, 9] of 55%.

In the case of `OC(CN1CCc2ccsc2C1)c1ccccc1` (stereo not shown) [compound 23], the inhibition in vivo at 100 mg/kg [1, 5] is reported as 39%, the inhibition in vivo at 100 mg/kg [1, 6] is reported as 51% and the inhibition in vivo at 100 mg/kg [1, 7] is reported as 58%. The inhibition in vivo at 100 mg/kg [2, 8] was 50% and the inhibition in vivo at 100 mg/kg [2, 9] was 61%.

Work on `COc1ccc(CN2CCc3ccsc3C2)c(OC)c1OC` [compound 28] yielded an inhibition in vivo at 100 mg/kg [1, 5] of 43%, an inhibition in vivo at 100 mg/kg [1, 6] of 52% and an inhibition in vivo at 100 mg/kg [1, 7] of 61%. The inhibition in vivo at 100 mg/kg [2, 8] was 45% and the inhibition in vivo at 100 mg/kg [2, 9] was 63%.

`COc1ccc(C(O)CN2CCc3ccsc3C2)cc1` (stereo not shown) [compound 30] showed an inhibition in vivo at 100 mg/kg [1, 5] of 38%, an inhibition in vivo at 100 mg/kg [1, 6] of 44% and an inhibition in vivo at 100 mg/kg [1, 7] of 51%. It also gave an inhibition in vivo at 100 mg/kg [2, 8] of 39% and an inhibition in vivo at 100 mg/kg [2, 9] of 59%.

With `COc1ccc(OC)c(C(O)CN2CCc3ccsc3C2C)c1` (stereo not shown) [compound 34] the inhibition in vivo at 100 mg/kg [1, 5] was 37%, the inhibition in vivo at 100 mg/kg [1, 6] was 48% and the inhibition in vivo at 100 mg/kg [1, 7] was 58%. The inhibition in vivo at 100 mg/kg [2, 8] was 45% and the inhibition in vivo at 100 mg/kg [2, 9] was 61%.
